Measurements published in patent US20260200902A1, “CRYSTALLINE FORMS OF 7-CHLORO-2-(4-(3-METHOXYAZETIDIN-1-YL)CYCLOHEXYL)-2,4- DIMETHYL-N-((6-METHYL-4-(METHYLTHIO)-2-OXO-1,2-DIHYDROPYRIDIN-3-YL)METHYL)BENZO [D][1,3]DIOXOLE-5-CARBOXAMIDE” (Constellation Pharmaceuticals, Inc., priority 2019, published 2026).
Entries after “also recorded” stand apart in the source; their conditions may differ.

How the values were obtained:
Type in all cases: physicochemical
[1] = Relative stability of crystalline forms (polymorph screening and competitive slurry experiments); conditions: Form 1 versus Form 2
Method: The amorphous form of Compound 1 samples with different purities, one with 95.2% purity (30 mg) and another with 97.6% purity (20 mg), were each suspended or dissolved in 10-30 vol of a given solvent at RT. After 5 m n equilibration at RT, all samples (solutions and suspensions) were heated to 50° C. for 10 minutes and the resulting samples were treated as follows: Suspensions were matured between 60 and 5 FC for 72 hrs (4 hrs at each temperature). Solutions were cooled from 50 to 5° C. at 0.1° C./min and maintained at 5° C. for 72 hrs. If no solid was obtained, the solutions were allowed to evaporate at RT. All the recovered solids were analyzed by XRPD and subsequently by the appropriate techniques. See Tables 1-3 for screening procedures and analytical results.

[2] = Static stability storage at elevated RH (5 days), XRPD and HPLC; conditions: for Solid form by XRPD after storage: stored for 5 days at elevated RH conditions
[3] = Gravimetric vapour sorption (GVS) analysis; conditions: for XRPD post GVS (solid form): after GVS analysis

Row | Relative stability of crystalline form [1] | Static stability, HPLC ([2]; 25° C./97% RH (5 days)) [%] | Static stability, HPLC ([2]; 40° C./75% RH (5 days)) [%] | Solid form by XRPD after storage [2] | Hygroscopicity by GVS analysis [3] | Structure (SMILES) | Static stability, XRPD ([2]; 25° C./97% RH (5 days)) | Static stability, XRPD ([2]; 40° C./75% RH (5 days)) | XRPD post GVS (solid form) [3]
1 | more stable than Form 2 | 96.8 | 96.5 | remained Form 1 | slightly hygroscopic | COC1CN(C2CCC(C3(C)Oc4c(Cl)cc(C(=O)NCc5c(SC)cc(C)[nH]c5=O)c(C)c4O3)CC2)C1 (centres unmarked) [Form 1, 7-chloro-2-(4-(3-methoxyazetidin-1-yl)cyclohexyl)-2,4-dimethyl-N-((6-methyl-4-(methylthio)-2-oxo-1,2-dihydropyridin-3-yl)methyl)benzo[d][1,3]dioxole-5-carboxamide] | XRPD: Slight reduction in crystallinity,; also recorded: remained pattern 1 | XRPD: Slight reduction in crystallinity,; also recorded: remained pattern 1 | remained Form 1; also recorded: showed the material remained Pattern 1
2 | less stable crystalline form than Form 1 | – | – | became amorphous | – | COC1CN(C2CCC(C3(C)Oc4c(Cl)cc(C(=O)NCc5c(SC)cc(C)[nH]c5=O)c(C)c4O3)CC2)C1 (centres unmarked) [Form 2, 7-chloro-2-(4-(3-methoxyazetidin-1-yl)cyclohexyl)-2,4-dimethyl-N-((6-methyl-4-(methylthio)-2-oxo-1,2-dihydropyridin-3-yl)methyl)benzo[d][1,3]dioxole-5-carboxamide] | – | – | became amorphous
